Source: patent publication US20080119548A1, “Control Of Feeding Behavior By Changing Neuronal Energy Balance” (priority 2004, published 2008)

Assays:
[1] = test system: primary cortical neurons; assay: ATP, AMP/ATP ratio and AMPK activity in primary cortical neurons; format: cell-based, Sprague-Dawley rats; details: C75 treatment
Method: Cortices were removed from E17 Sprague-Dawley rats (Harlan, Indianapolis, Ind.), and were dissociated by mild trypsinization and trituration as described by Dawson, et al. J Neurosci 13, 2651-2661 (1993). Cells were plated on poly-D-lysine coated plastic Nunclon culture dishes at a density of 5×10^5 cells/cm^2 in Minimum Essential Media (MEM) supplemented with horse serum, fetal bovine serum, glutamine, and the antibiotics gentamycin and kanamycin. […]
Neurons were lysed on ice using TE buffer (100 mM Tris and 4 mM EDTA) and removed from the plate. ATP levels were then measured in the linear range using the ATP Bioluminescence Kit CLS II (Roche, Indianapolis, Ind.) by following the manufacturer's protocol, and results were read by a Perkin-Elmer Victor^2 1420.
Adenine nucleotide levels in primary cortical neuron lysates were determined by HPLC analysis as described by Stocchi, et al. Anal Biochem 167, 181-190 (1987). […]
AMPK activity was determined by performing SAMS peptide assays as described by Witters, et al., J Biol Chem 267, 2864-2867 (1992). […] Immunoprecipitates were then washed and resuspended in 4× assay buffer and kinase activity was assessed by measurement (for 20 min at 30° C.) of the incorporation of ^32P into the synthetic SAMS peptide substrate, HMRSAMSGLHLVKRR, (Princeton Biomolecules). […]

[2] = test system: primary hypothalamic neurons; assay: ATP measurement in primary hypothalamic neuron cultures; format: cell-based, Sprague-Dawley rats
Method: Hypothalami were dissected from E17 Sprague-Dawley rats (Harlan), and dissociated by trypsin (0.125%)-DNA (0.001%) solution and trituration as described by Landree, et al., J. Biol. Chem., 279, 3817-3827. Cells were plated at 6×10^4 on poly-D-lysine coated 96 well plates (Corning Inc.) in neurobasal medium supplemented with B27, 0.5 mM L-glutamine, 1% penicillin-streptomycin (Gibco-BRL). To limit nonneuronal cell proliferation, cells were treated with cytosine arabinoside furanoside (1 μM) on day 4 after plating and 6-8 days-old cells were assayed for ATP. Hypothalamic neurons were lysed in TE (100 mM Tris-HCl, pH 7.4, 4 mM DTA), and ATP levels were measured within the linear range using the ATP BioLuminescence Kit CLSII (Roche) by following the manufacture's recommendation. Data were analyzed by a Perkin-Elmer Victor^2 1420.

[3] = test system: pAMPKα; assay: Immunohistochemistry of pAMPKα in the arcuate nucleus; format: in vivo; details: C75-treated (24 hr) mice
Method: Free-floating sections were blocked in PBS containing 5% goat serum, 0.1% BSA, 0.05% Triton-X100, 1 mM NaF for 1 hr at room temperature and incubated with anti-phospho-AMPKα (α1 and α2) antibody (1:100) or anti-phospho-CREB antibody (1:500, Cell Signaling) in PBS containing 1% goat serum, 0.1% BSA, 0.05% Triton-X100, 1 mM NaF overnight at 4° C. Signal was visualized by Vectastain ABC kit (Vector).
Images of in situ hybridization and immunohistochemistry were visualized using an Axiocam HRc digital camera (Carl Zeiss) and images were acquired using Improvision Openlab software, and quantified by NIH Image program (Macro).

[4] = test system: liver AMPKα; assay: Western blot of phosphorylated AMPKα in liver; format: in vivo, mice; details: C75 i.p.
Method: Hypothalami were dissected using as landmarks the optic chiasm rostrally, and the mammillary bodies caudally to a depth of 2 mm. Dissected hypothalamic and liver tissue were immediately frozen in liquid nitrogen. Tissues were homogenized in 200 μl of lysis buffer (50 mM Tris-HCl, pH 7.5, 250 mM sucrose, 5 mM sodium pyrophosphate, 50 mM NaF, 1 mM EDTA, 1 mM EGTA, 1 mM DTT, 0.5 mM PMSF, 0.1 mM benzamidine, 50 μg/ml leupeptin, 50 μg/ml soybean trypsin inhibitor). SDS detergent was added to a final 0.2%, and lysates were boiled for 5 min. After the supernatant was harvested, protein concentration was determined by BCA kit (Bio Rad). Phosphorylation of AMPKα was determined on a 4-15% gradient SDS-polyacrylamide gel using anti-phospho-AMPKα (α1 and α2, Thr172) antibody (1:1000, Cell Signaling). Anti-AMPKαt antibody (α1 and α2, 1:1000, Cell Signaling) was used as a loading control.

C=C1C(=O)OC(CCCCCCCC)C1C(=O)O (stereo not shown) [C75]
AMPK activity in primary cortical neurons [1]: inactivation of AMPK
ratio of AMP/ATP in primary cortical neurons [1]: decrease in the ratio of AMP/ATP
neuronal ATP levels, % of control ([2]; 40 mg/ml C75, 30 min): 118 % of control
neuronal ATP levels, % of control ([2]; 40 mg/ml C75, 2 hr): 128 % of control
pAMPKa-immunoreactivity in the arcuate nucleus, % of control [3]: 12 % of control
pAMPKα levels in the liver ([4]; 30 min after administration): little effect
pAMPKα levels in the liver ([4]; 3 hr): increased pAMPKα levels
